# Results reported in patent publication US12018021B2 (UCB Biopharma SRL, priority 2018, dated 2024).
# Molecular target: IgE-Tb / FcεRIα-Y131A-AF488 (Homo sapiens, UniProt P01854)
# Assay: IgE-Tb / FcεRIα-Y131A-AF488 FRET assay (protocol for examples 1 to 233)
# Format: binding
# Conditions: examples 1 to 233: 5 nM IgE-Tb, 25 nM FcεRIα-Y131A-AF488, incubated 2 hours at room temperature; read-out: Y131A FRET IC50 range
# In short: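 TR-FRET displacement with 5 nM IgE-Tb and 25 nM FcεRIα-Y131A-AF488 (final), 10-point 3-fold compound dilutions from typically 10 μM top, 2% DMSO, 2 h at room temperature. Excitation 330 nm, 520/495 nm emission ratio; MIN set with 200 nM unlabelled FcεRIα. IC50 from four-parameter logistic fit of percent inhibition.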
# Chain of IgE-Tb / FcεRIα-Y131A-AF488 (P01854 1-427 limits assumed, stated change not applied): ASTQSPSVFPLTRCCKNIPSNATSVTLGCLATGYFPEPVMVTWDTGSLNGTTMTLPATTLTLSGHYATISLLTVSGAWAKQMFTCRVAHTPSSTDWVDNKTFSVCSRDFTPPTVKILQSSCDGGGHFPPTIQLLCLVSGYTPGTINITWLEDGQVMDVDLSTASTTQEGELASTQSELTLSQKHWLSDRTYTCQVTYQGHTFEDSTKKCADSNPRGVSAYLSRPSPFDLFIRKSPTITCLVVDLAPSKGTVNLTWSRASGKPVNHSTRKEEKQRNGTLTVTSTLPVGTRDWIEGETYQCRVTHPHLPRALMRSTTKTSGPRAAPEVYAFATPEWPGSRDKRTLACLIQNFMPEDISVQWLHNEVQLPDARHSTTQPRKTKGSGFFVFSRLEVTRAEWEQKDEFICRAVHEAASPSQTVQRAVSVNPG
row,Structure (SMILES),IC50 [nM]
1,"CCNC(=NC#N)NC1CCc2sc(NC(=O)C3CC3)c(S(=O)(=O)NCC3CC3)c2C1 (stereo not drawn) [Example 31, N-[5-[[N′-Cyano-N-ethyl-carbamimidoyl]amino]-3-(cyclopropylmethylsulfamoyl)-4,5,6,7-tetrahydrobenzothiophen-2-yl]cyclopropanecarboxamide]",< 1000
2,"O=C1NCc2cc(NC(=O)C3CCc4sc(NC(=O)C5CC5)c(S(=O)(=O)NCC5CC5)c4C3)ccc21 (stereo not drawn) [Example 32, 2-(Cyclopropanecarbonylamino)-3-(cyclopropylmethylsulfamoyl)-N-(1-oxoisoindolin-5-yl)-4,5,6,7-tetrahydrobenzothiophene-5-carboxamide]",< 1000
3,"NS(=O)(=O)c1cccc(NC(=O)C2CCc3sc(NC(=O)C4CC4)c(S(=O)(=O)NCC4CC4)c3C2)c1 (stereo not drawn) [Example 33, 2-(Cyclopropanecarbonylamino)-3-(cyclopropylmethylsulfamoyl)-N-(3-sulfamoylphenyl)-4,5,6,7-tetrahydrobenzothiophene-5-carboxamide]",< 1000
4,"CS(=O)(=O)c1cccc(NC(=O)C2CCc3sc(NC(=O)C4CC4)c(S(=O)(=O)NCC4CC4)c3C2)c1 (stereo not drawn) [Example 34, 2-(Cyclopropanecarbonylamino)-3-(cyclopropylmethylsulfamoyl)-N-(3-methylsulfonylphenyl)-4,5,6,7-tetrahydrobenzothiophene-5-carboxamide]",< 1000
5,"O=C(Nc1cccc(-c2ccno2)c1)C1CCc2sc(NC(=O)C3CC3)c(S(=O)(=O)NCC3CC3)c2C1 (stereo not drawn) [Example 35, 2-(Cyclopropanecarbonylamino)-3-(cyclopropylmethylsulfamoyl)-N-(3-isoxazol-5-ylphenyl)-4,5,6,7-tetrahydrobenzothiophene-5-carboxamide]",< 1000
6,"CCOc1c(NC2CCc3sc(NC(=O)C4CC4)c(S(=O)(=O)NCC4CC4)c3C2)c(=O)c1=O (stereo not drawn) [Example 36, N-[3-(Cyclopropylmethylsulfamoyl)-5-[(2-ethoxy-3,4-dioxo-cyclobuten-1-yl)amino]-4,5,6,7-tetrahydrobenzothiophen-2-yl]cyclopropanecarboxamide]",< 1000
7,"CCNc1c(NC2CCc3sc(NC(=O)C4CC4)c(S(=O)(=O)NCC4CC4)c3C2)c(=O)c1=O (stereo not drawn) [Example 37, N-[3-(Cyclopropylmethylsulfamoyl)-5-[[2-(ethylamino)-3,4-dioxo-cyclobuten-1-yl]amino]-4,5,6,7-tetrahydrobenzothiophen-2-yl]cyclopropanecarboxamide]",< 1000
8,"CCCCS(=N)(=O)c1c(NC(=O)C2CC2)sc2c1CCCC2 (stereo not drawn) [Example 38, N-[3-(Butylsulfonimidoyl)-4,5,6,7-tetrahydrobenzothiophen-2-yl]cyclopropanecarboxamide]",1000 to 10000
9,"CCOC(=O)C1CCc2sc(NC(=O)C3CC3)c(C(=O)NCC3CC3)c2C1 (stereo not drawn) [Example 39, Ethyl 2-(cyclopropanecarbonylamino)-3-(cyclopropylmethylcarbamoyl)-4,5,6,7-tetrahydrobenzothiophene-5-carboxylate]",1000 to 10000
10,"O=C(NCC1CC1)c1c(NC(=O)C2CC2)sc2c1CC(C(=O)O)CC2 (stereo not drawn) [Example 40, 2-(Cyclopropanecarbonylamino)-3-(cyclopropylmethylcarbamoyl)-4,5,6,7-tetrahydrobenzothiophene-5-carboxylic acid]",10000 to 50000
11,"O=C1NCc2cc(NC(=O)C3CCc4sc(NC(=O)C5CC5)c(C(=O)NCC5CC5)c4C3)ccc21 (stereo not drawn) [Example 41, 2-(Cyclopropanecarbonylamino)-N3-(cyclopropylmethyl)-N5-(1-oxoisoindolin-5-yl)-4,5,6,7-tetrahydrobenzothiophene-3,5-dicarboxamide]",< 1000
12,"O=C1CC(c2cccc(NC(=O)C3CCc4sc(NC(=O)C5CC5)c(C(=O)NCC5CC5)c4C3)c2)CN1 (stereo not drawn) [Example 42, 2-(Cyclopropanecarbonylamino)-N3-(cyclopropylmethyl)-N5-[3-(5-oxopyrrolidin-3-yl)phenyl]-4,5,6,7-tetrahydrobenzothiophene-3,5-dicarboxamide]",< 1000
13,"CC1=NN(c2cccc(NC(=O)C3CCc4sc(NC(=O)C5CC5)c(C(=O)NCC5CC5)c4C3)c2)C(=O)C1 (stereo not drawn) [Example 43, 2-(Cyclopropanecarbonylamino)-N3-(cyclopropylmethyl)-N5-[3-(3-methyl-5-oxo-4H-pyrazol-1-yl)phenyl]-4,5,6,7-tetrahydrobenzothiophene-3,5-dicarboxamide]",< 1000
14,"O=C(NCC1CC1)c1c(NC(=O)C2CC2)sc2c1CC(C(=O)Nc1cccc3[nH]ncc13)CC2 (stereo not drawn) [Example 44, 2-(Cyclopropanecarbonylamino)-N3-(cyclopropylmethyl)-N5-(1H-indazol-4-yl)-4,5,6,7-tetrahydrobenzothiophene-3,5-dicarboxamide; 2,2,2-trifluoroacetic acid]",< 1000
15,"O=C(NCC1CC1)c1c(NC(=O)C2CC2)sc2c1CC(C(=O)Nc1ccc3[nH]ncc3c1)CC2 (stereo not drawn) [Example 45, 2-(Cyclopropanecarbonylamino)-N3-(cyclopropylmethyl)-N5-(1H-indazol-5-yl)-4,5,6,7-tetrahydrobenzothiophene-3,5-dicarboxamide; 2,2,2-trifluoroacetic acid]",< 1000
16,"O=C(NCC1CC1)c1c(NC(=O)C2CC2)sc2c1CC(c1nc3nccnc3[nH]1)CC2 (stereo not drawn) [Example 46, 2-(Cyclopropanecarbonylamino)-N-(cyclopropylmethyl)-5-(1H-imidazo[4,5-b]pyrazin-2-yl)-4,5,6,7-tetrahydrobenzothiophene-3-carboxamide]",< 1000
17,"O=C(NCC1CC1)c1c(NC(=O)C2CC2)sc2c1CC(C(=O)NC1Cc3ccccc3C1)CC2 (stereo not drawn) [Example 47, 2-(Cyclopropanecarbonylamino)-N3-(cyclopropylmethyl)-N5-indan-2-yl-4,5,6,7-tetrahydrobenzothiophene-3,5-dicarboxamide]",< 1000
18,"COc1ccc(CCNC(=O)C2CCc3sc(NC(=O)C4CC4)c(C(=O)NCC4CC4)c3C2)cc1 (stereo not drawn) [Example 48, 2-(Cyclopropanecarbonylamino)-N3-(cyclopropylmethyl)-N5-[2-(4-methoxyphenyl)ethyl]-4,5,6,7-tetrahydrobenzothiophene-3,5-dicarboxamide]",< 1000
19,"O=C(NCC1CC1)c1c(NC(=O)C2CC2)sc2c1CC(C(=O)Nc1ccc3nccnc3c1)CC2 (stereo not drawn) [Example 49, 2-(Cyclopropanecarbonylamino)-N3-(cyclopropylmethyl)-N5-quinoxalin-6-yl-4,5,6,7-tetrahydrobenzothiophene-3,5-dicarboxamide]",< 1000
20,"O=C(NCC1CC1)c1c(NC(=O)C2CC2)sc2c1CC(C(=O)Nc1nccs1)CC2 (stereo not drawn) [Example 50, 2-(Cyclopropanecarbonylamino)-N3-(cyclopropylmethyl)-N5-thiazol-2-yl-4,5,6,7-tetrahydrobenzothiophene-3,5-dicarboxamide]",< 1000
21,"O=C(NCC1CC1)c1c(NC(=O)C2CC2)sc2c1CC(C(=O)Nc1nnn[nH]1)CC2 (stereo not drawn) [Example 51, 2-(Cyclopropanecarbonylamino)-N3-(cyclopropylmethyl)-N5-(1H-tetrazol-5-yl)-4,5,6,7-tetrahydrobenzothiophene-3,5-dicarboxamide]",< 1000
22,"O=C(NCC1CC1)c1c(NC(=O)C2CC2)sc2c1CC(C(=O)Nc1ccncc1)CC2 (stereo not drawn) [Example 52, 2-(Cyclopropanecarbonylamino)-N3-(cyclopropylmethyl)-N5-(4-pyridyl)-4,5,6,7-tetrahydrobenzothiophene-3,5-dicarboxamide]",< 1000
23,"O=C(NCC1CC1)c1c(NC(=O)C2CC2)sc2c1CC(C(=O)Nc1cnccn1)CC2 (stereo not drawn) [Example 53, 2-(Cyclopropanecarbonylamino)-N3-(cyclopropylmethyl)-N5-pyrazin-2-yl-4,5,6,7-tetrahydrobenzothiophene-3,5-dicarboxamide]",< 1000
24,"O=C(NCC1CC1)c1c(NC(=O)C2CC2)sc2c1CC(C(=O)Nc1cccnc1)CC2 (stereo not drawn) [Example 54, 2-(Cyclopropanecarbonylamino)-N3-(cyclopropylmethyl)-N5-(3-pyridyl)-4,5,6,7-tetrahydrobenzothiophene-3,5-dicarboxamide]",< 1000
25,"O=C(NCC1CC1)c1c(NC(=O)C2CC2)sc2c1CC(C(=O)N1CC(O)C1)CC2 (stereo not drawn) [Example 55, 2-(Cyclopropanecarbonylamino)-N-(cyclopropylmethyl)-5-(3-hydroxyazetidine-1-carbonyl)-4,5,6,7-tetrahydrobenzothiophene-3-carboxamide]",10000 to 50000
26,"O=C(NCC1CC1)c1c(NC(=O)C2CC2)sc2c1CC(C(=O)N1CCS(=O)(=O)CC1)CC2 (stereo not drawn) [Example 56, 2-(Cyclopropanecarbonylamino)-N-(cyclopropylmethyl)-5-(1,1-dioxo-1,4-thiazinane-4-carbonyl)-4,5,6,7-tetrahydrobenzothiophene-3-carboxamide]",10000 to 50000
27,"O=C(NCC1CC1)c1c(NC(=O)C2CC2)sc2c1CC(C(=O)NCCc1ccc(O)cc1)CC2 (stereo not drawn) [Example 57, 2-(Cyclopropanecarbonylamino)-N3-(cyclopropylmethyl)-N5-[2-(4-hydroxyphenyl)ethyl]-4,5,6,7-tetrahydrobenzothiophene-3,5-dicarboxamide]",< 1000
28,"O=C(NCC1CC1)c1c(NC(=O)C2CC2)sc2c1CC(C=NO)CC2 (stereo not drawn) [Example 58, 2-(cyclopropanecarbonylamino)-N-(cyclopropylmethyl)-5-(hydroxyiminomethyl)-4,5,6,7-tetrahydrobenzothiophene-3-carboxamide]",1000 to 10000
29,"CCn1cnnc1NCC1CCc2sc(NC(=O)C3CC3)c(C(=O)NCC3CC3)c2C1 (stereo not drawn) [Example 59, 2-(Cyclopropanecarbonylamino)-N-(cyclopropylmethyl)-5-[[(4-ethyl-1,2,4-triazol-3-yl)amino]methyl]-4,5,6,7-tetrahydrobenzothiophene-3-carboxamide]",< 1000
30,"Cc1ccc(NCC2(O)CCc3sc(NC(=O)C4CC4)c(C(=O)NCC4CC4)c3C2)cc1 (stereo not drawn) [Example 60, 2-(Cyclopropanecarbonylamino)-N-(cyclopropylmethyl)-5-hydroxy-5-[(4-methylanilino)methyl]-6,7-dihydro-4H-benzothiophene-3-carboxamide]",1000 to 10000
